Measurements from patent US20140170159A9, “Conditionally active anti-epidermal growth factor receptor antibodies and methods of use thereof” (priority 2012, published 2014).
Marks after values point to notes of the source that are not given here.

How the values were obtained:
[1] = tested on: A431 xenograft tumors; test: A431 xenograft tumor growth, Cetuximab and cisplatin combination; assay type: in vivo, male nude mice; settings: day 14
Method: Specifically, the test article(s) were administered on days 0, 4, 7, 11, and 14.
Tumor growth, measured as tumor volume (mm^3), was determined on days—1, 4, 7, 11 and 14 using digital calipers and calculation as described in Example 8. Tumor growth inhibition (TGI) for the treatment groups was calculated using the formula: % TGI=[1−(TB−TA)/(CB−CA)]×100; where TB is the average tumor volume (mm^3) in the treatment group at day 14, TA is the average tumor volume (mm^3) in the treatment group the day before the first treatment (day—1), CB is the average tumor volume in the vehicle only control group at day 14, and CA is the average tumor volume in the vehicle only control group the day before the first treatment (day—1) (see, e.g., Teicher B A and Andrews P A: Anticancer Drug Development, Guide: Preclinical Screening, Clinical Trials and Approval, 2nd edition.

[2] = tested on: A431 xenograft tumors; test: A431 xenograft tumor growth, Cetuximab vs. HC-Y104D and cisplatin; assay type: in vivo, male nude mice; settings: 5 mg/kg cisplatin IV twice per week, day 14
Method: Subcutaneous A431 xenograft tumors were established in male nude mice as described above. […] Specifically, the test article(s) were administered on days 0, 4, 7 and 11. Tumor volume (mm^3) was determined on days—1, 4, 7, 11 and 14 as described previously.

N.N.[Cl][Pt][Cl] [cisplatin]
tumor growth inhibition (TGI) ([1]; 5 mg/kg cisplatin alone): 34.2%
% Tumor Growth Inhibition ([1]; Cisplatin 5 mg/kg ([…]) IV twice per week): 34.2* %
% Tumor Growth Inhibition ([1]; Cisplatin […] (0.04 mg/mouse) IV twice per week): 16.7%
reduction in tumor growth [2]: about 45%
